Consider 11 molecules from EPA's ToxValDB 9.5.

As usually defined, the LD50 is the dose expected to kill half of the subjects tested. Broadly, the NOAEL is the highest dose or exposure tested at which no adverse effect was seen. The term LOAEL denotes the lowest dose or exposure tested at which an adverse effect was seen.

The test system of data set [1] is Oryctolagus sp. To be noted: for LD50: acute.
The test system of data set [2] is Rattus norvegicus. The settings on record: for LD50 / LC50: acute.
The subject of data set [3] is Rattus norvegicus. To be noted: subchronic; duration: 90 days; oral; gavage; M; Sprague-Dawley; Increased hepatocellular hypertrophy (Liver), Decreased total T4 (Thyroid).
In data set [4] the test system is Mus musculus. The settings on record: oral.
In data set [5] the test system is Rattus norvegicus. The settings on record: oral, Sprague-Dawley.
Setting [6] is: subchronic, duration: 30 days, oral, diet, Sprague-Dawley.
The mark [7] stands for this setting: reproduction developmental, oral, diet, Sprague-Dawley, generation: F1.
The mark [8] stands for this setting: short-term, duration: 28 days, M, Endocrine: Hyperplasia/hypertrophy of follicular epithelium of the thyroid.
[9] abbreviates: short-term, duration: 28 days, M, Neurological: Delayed pupillary reflex.

Where “and” joins values, the source holds several entries; their conditions need not be identical. Equal values may be shown once.

As to `CN1C(=O)c2ccccc2C1=O` [N-Methylphthalimide], the LD50 was over 2000 mg/kg in data set [1] (dermal, occlusive, New Zealand); over 500 mg/kg in data set [2] (oral, Spartan); over 500 mg/kg in data set [2] (oral, gavage, Spartan). For the same molecule, the NOAEL was over 500 mg/kg-day in data set [1] (developmental, duration: 6 days, oral, gavage, New Zealand); 150 mg/kg-day in data set [2] (reproduction developmental, duration: 4 weeks, oral, gavage, F, Sprague-Dawley); at least 600 mg/kg-day in data set [2] (reproduction developmental, duration: 4 weeks, oral, gavage, M, Sprague-Dawley); 150 mg/kg-day in data set [2] (reproduction developmental, duration: 4 weeks, oral, gavage, Sprague-Dawley, generation: F0); under 50 mg/kg-day in data set [2] (reproduction developmental, duration: 4 weeks, oral, gavage, Sprague-Dawley, generation: F1); 150 mg/kg-day in data set [2] (reproduction developmental, oral, gavage, F). In addition, the NOAEL in data set [2] (reproduction developmental, oral, gavage, generation: F0) is 150 mg/kg-day; in data set [2] (reproduction developmental, oral, gavage, generation: F1) it was 50 mg/kg-day. Besides, the “LOAEL (% diet)” value in data set [2] (setting [6]) was 0.5. The “NOAEL (% diet)” value in data set [2] (setting [6]) came out at 0.25.

Turning to `CCCCC(CC)C(=O)[O-].CCCCC(CC)C(=O)[O-].[Zn+2]` (centres undefined) [Zinc 2-ethylhexoate], the median lethal dose (LD50) was over 5000 mg/kg in data set [1] (dermal, occlusive); ≥ 3550 mg/kg and ≤ 3700 mg/kg in data set [2] (oral); ≥ 3550 mg/kg and ≤ 3700 mg/kg in data set [2] (oral, gavage). The same molecule showed an LC50 in data set [2] (Inhalation) of over 23.2 µg/mL. Further, the NOAEL in data set [2] (short-term, duration: 7 days, oral, gavage, Sprague-Dawley) is 1000 mg/kg-day.

`CCCCCCCCCCCCCCCCCCN(C)CCCCCCCCCCCCCCCCCC` [Distearylmethylamine]: the LD50 in data set [1] (dermal, occlusive, New Zealand) was over 2000 mg/kg; in data set [2] (oral, gavage, Sprague-Dawley), over 5000 mg/kg; in data set [2] (oral, gavage, Wistar), over 2000 mg/kg. Besides, the “LOAEL (% diet)” value in data set [2] (subchronic, duration: 13 weeks, oral, diet, Sprague-Dawley) was found to be 0.15.

Turning to `C=CC(C)C#N` (centres undefined) [2-Methyl-3-butenenitrile], the LD50 in data set [1] (dermal, occlusive, New Zealand) was determined as 482 mg/kg. Also, the LC50 in data set [2] (inhalation, Sprague-Dawley) was determined as 9950 mg/m3.

With `c1ccc(OP(Oc2ccccc2)Oc2ccccc2)cc1` [Triphenyl phosphite], the LD50 in data set [1] (dermal, New Zealand) is ≥ 2000 mg/kg and ≤ 5000 mg/kg; in data set [2] (oral, gavage, Sherman Wistar) it was 1590 mg/kg. In addition, in data set [2] (Inhalation, Sherman Wistar), the LC50 was over 6.7 µg/mL. Further, the NOAEL in data set [2] (reproduction developmental, duration: 16 weeks, oral, gavage, Sprague-Dawley, generation: F0) is 15 mg/kg-day; in data set [2] (reproduction developmental, duration: 16 weeks, oral, gavage, Sprague-Dawley, generation: F1) it was 15 mg/kg-day.

With `O=C([O-])c1ccc2ccccc2c1.O=C([O-])c1ccc2ccccc2c1.[Zn+2]` [Zinc naphthenate], the lowest observed adverse effect level (LOAEL) was 1000 mg/kg-day in data set [1] (subchronic, duration: 90 days, dermal, semiocclusive, New Zealand); 938 mg/kg-day in data set [2] (developmental, duration: 10 days, oral, gavage, Sprague-Dawley); 500 mg/kg-day and 938 mg/kg-day in data set [2] (reproduction developmental, duration: 10 days, oral, gavage, F, Sprague-Dawley). For the same molecule, the LD50 was over 6000 mg/kg in data set [2] (oral, gavage) and over 5000 mg/kg in data set [2] (oral, gavage, Sprague-Dawley).

`CCCCN(CCCC)C(=S)SCSC(=S)N(CCCC)CCCC` [4,4'-Methylene bis(dibutyldithiocarbamate)]: the LD50 in data set [1] (dermal) was over 2000 mg/kg; in data set [2] (oral) it was 16000 mg/kg. In addition, the NOAEL was 1000 ppm in data set [2] (reproduction developmental, oral, diet, Sprague-Dawley, generation: F0) and over 20000 ppm in data set [2] (setting [7]). Moreover, in data set [2] (setting [7]), the LOAEL was over 20000 ppm.

As for `O=C(O)C(F)(F)C(F)(F)C(F)(F)F` [Perfluorobutanoic acid], the NOAEL worked out at 6 mg/kg-day in data set [3]; 350 mg/kg-day in data set [4] (reproduction developmental, duration: 18 days, gavage, CD1, Hepatic: Significant increase in absolute and relative liver weight at ?[…]); 78 mg/kg-day in data set [4] (short-term, duration: 10 days, diet, M, Hepatic: 63% increase in absolute liver weight); 184 mg/kg-day in data set [5] (short-term, duration: 5 days, gavage, M/F, Immunotoxicological: No histological alterations + Neurological: No histological alterations + Reproductive: No histological alterations); 20 mg/kg-day in data set [5] (short-term, duration: 14 days, diet, M, Hepatic: Biochemical and ultrastructural evidence of peroxisome proliferation); 150 mg/kg-day in data set [5] (short-term, duration: 28 days, M/F, Hepatic: Increased absolute and relative liver weight and decreased serum cholesterol in males at ?30 mg/kg/day / hepatocellular …). Further, the NOAEL came to 6 mg/kg-day in data set [5] (setting [8]); 30 mg/kg-day in data set [5] (setting [9]); 6 mg/kg-day in data set [5] (subchronic, duration: 90 days, M/F, Hematological: Reduced erythrocyte counts (3.8%), hemoglobin (5.7%), and hematocrit (4.5%)); 30 mg/kg-day in data set [5] (subchronic, duration: 90 days, M/F, Hepatic: Diffuse panlobular hepatocyte hypertrophy at 30 mg/kg/day in males + Immunotoxicological: No histological alterations + …); 6 mg/kg-day in data set [5] (subchronic, duration: 90 days, M, Endocrine: Hypertrophy/hyperplasia of follicular epithelium of the thyroid gland). Further, the LOAEL was 35 mg/kg-day in data set [4] (developmental, duration: 18 days, gavage, CD1, Developmental: Eye opening delayed approximately 1 day); 30 mg/kg-day in data set [5] (setting [8]); 150 mg/kg-day in data set [5] (setting [9]); 30 mg/kg-day in data set [5] (subchronic, duration: 90 days, M, Endocrine: Hypertrophy/hyperplasia of follicular epithelium of the thyroid gland + Hematological: Reduced erythrocyte counts (3.8%), …).

In the case of `CN(C)CCN(C)C` [N,N,N',N'-Tetramethylethylenediamine], the LD50 in data set [1] (dermal, New Zealand) came to 1230 mg/kg. Further, the LC50 is over 5610 mg/m3 in data set [2] (inhalation); over 5610 mg/m3 in data set [2] (inhalation, Sprague-Dawley); 6260 mg/m3 in data set [2] (inhalation, Wistar).

Take `CCCCCCCCCCc1cccc(Oc2ccccc2S(=O)(=O)[O-])c1S(=O)(=O)[O-].[Na+].[Na+]` [Disodium n-decyldiphenyl ether disulfonate]: the LD50 in data set [1] (dermal, occlusive, New Zealand) was over 2000 mg/kg; in data set [2] (oral, gavage, Fischer 344), over 2000 mg/kg; in data set [2] (oral, gavage, Sprague-Dawley), 3560 mg/kg.

For the molecule `CC(C)CCCCCCc1cccc2c(CCCCCCC(C)C)cccc12` [Diisononylnaphthalene], the 50% lethal dose (LD50) is over 20000 mg/kg in data set [1] (dermal, New Zealand) and over 5000 mg/kg in data set [2] (oral, gavage, Wistar). The same molecule registered an LC50 in data set [2] (Inhalation, Wistar) of over 17 µg/mL.
